Measurements taken from ChEMBL document CHEMBL1142676, “Novel 2-alkylamino-1,4-benzoxazine derivatives as potent neuroprotective agents: structure-activity relationship studies” (J Med Chem, 2005).

What was measured:
HT-22 [1] = experiment: In vitro safety index as ratio of MTC/PC50 was determined for HT-22 hippocampal cell cultures of mouse by LDH assay; format: functional
HT-22 [2] = experiment: In vitro safety index as ratio of MTC/PC50 was determined for HT-22 hippocampal cell cultures of mouse by MTT reduction assay; format: functional
HT-22 [3] = experiment: In vitro maximum tolerated concentration against HT-22 hippocampal cell cultures of mouse by LDH assay; format: functional
HT-22 [4] = experiment: In vitro maximum tolerated concentration against HT-22 hippocampal cell cultures of mouse by MTT reduction assay; format: functional
HT-22 [5] = experiment: In vitro protective concentration of compound for HT-22 hippocampal cell cultures of mouse against 2 mM L-homocysteic acid in LDH assay; format: functional
HT-22 [6] = experiment: In vitro protective concentration of compound for HT-22 hippocampal cell cultures of mouse against 2 mM L-homocysteic acid in MTT reduction assay; format: functional
HT-22 [7] = experiment: In vitro toxic concentration against HT-22 hippocampal cell cultures of mouse by LDH assay; format: functional; conditions: read-out: TC50 (the source's name)
HT-22 [8] = experiment: In vitro toxic concentration against HT-22 hippocampal cell cultures of mouse by MTT reduction assay; format: functional; conditions: read-out: TC50 (the source's name)
[9] = Partition coefficient (logP); format: physicochemical; conditions: octanol/water

`CC1(C)Nc2c(ccc(C(=O)c3ccccc3)c2O)OC1N1CCCCC1` (configuration not stated) gave a Safety index (HT-22 [1]) of 24.4, a Safety index (HT-22 [2]) of 3.1 and an MTC (HT-22 [3]) of 100 µM. For the same compound, the MTC (HT-22 [4]) was 10 µM, the PC50 (HT-22 [5]) was 4.1 µM and the PC50 (HT-22 [6]) was 3.2 µM. The CC50 (HT-22 [7]) was 120 µM and the CC50 (HT-22 [8]) was 72 µM.

`CC(C)CNC1Oc2ccc(C(=O)c3ccccc3)c(O)c2NC1c1ccccc1` (configuration not stated) gave a Safety index (HT-22 [1]) of 1, a Safety index (HT-22 [2]) of less than 1 and an MTC (HT-22 [3]) of 10 µM. It also gave an MTC (HT-22 [4]) of 5 µM, a PC50 (HT-22 [5]) of 10 µM and a PC50 (HT-22 [6]) of 10 µM. The CC50 (HT-22 [7]) was 79 µM and the CC50 (HT-22 [8]) was 108 µM.

For `O=C(c1ccccc1)c1ccc2c(c1O)NC1(CCCC1)C(NCC1CCCC1)O2` (configuration not stated), the Safety index (HT-22 [1]) was 30.5, the Safety index (HT-22 [2]) was 3.6 and the MTC (HT-22 [3]) was 25 µM. For the same compound, the MTC (HT-22 [4]) was 5 µM, the PC50 (HT-22 [5]) was 0.82 µM and the PC50 (HT-22 [6]) was 1.39 µM. It also gave a CC50 (HT-22 [7]) of 53 µM and a CC50 (HT-22 [8]) of 27 µM.

`CN(CC1OCCO1)C1Oc2ccc(C(=O)c3ccccc3)c(O)c2NC1c1ccccc1` (configuration not stated) showed a Safety index (HT-22 [1]) greater than 250, a Safety index (HT-22 [2]) of 200 and an MTC (HT-22 [3]) greater than 250 µM. The MTC (HT-22 [4]) was 100 µM, the PC50 (HT-22 [5]) was 1 µM and the PC50 (HT-22 [6]) was 0.5 µM. The CC50 (HT-22 [7]) was greater than 250 µM, the CC50 (HT-22 [8]) was greater than 250 µM and the logP [9] was 5.57.

With `COC(CNC1Oc2ccc(C(=O)c3ccccc3)c(O)c2NC1c1ccccc1)OC` (configuration not stated) the Safety index (HT-22 [1]) was greater than 100, the Safety index (HT-22 [2]) was 20 and the MTC (HT-22 [3]) was greater than 250 µM. It also gave an MTC (HT-22 [4]) of 100 µM, a PC50 (HT-22 [5]) of 2.5 µM and a PC50 (HT-22 [6]) of 5 µM. For the same compound, the CC50 (HT-22 [7]) was greater than 250 µM and the CC50 (HT-22 [8]) was greater than 250 µM.

In the case of `O=C(c1ccccc1)c1ccc2c(c1O)NC1(CCCCC1)C(N1CCOCC1)O2` (configuration not stated), the Safety index (HT-22 [1]) is reported as 2.1, the Safety index (HT-22 [2]) is reported as 1.8 and the MTC (HT-22 [3]) is reported as 5 µM. The MTC (HT-22 [4]) was 5 µM, the PC50 (HT-22 [5]) was 2.4 µM and the PC50 (HT-22 [6]) was 2.8 µM. It also gave a CC50 (HT-22 [7]) of 10.4 µM and a CC50 (HT-22 [8]) of 8.2 µM.

`O=C(c1ccccc1)c1ccc(NCc2ccccc2)c2c1NC1(CCCC1)CO2` showed a Safety index (HT-22 [1]) greater than 17.4, a Safety index (HT-22 [2]) greater than 15.8 and an MTC (HT-22 [3]) greater than 250 µM. It also gave an MTC (HT-22 [4]) greater than 250 µM, a PC50 (HT-22 [5]) of 14.4 µM and a PC50 (HT-22 [6]) of 15.8 µM. It also gave a CC50 (HT-22 [7]) greater than 250 µM, a CC50 (HT-22 [8]) greater than 250 µM and a logP [9] of 5.11.

For `CC1(C)Nc2c(ccc(C(=O)c3ccccc3)c2O)OC1NCCc1ccccc1` (configuration not stated), the Safety index (HT-22 [1]) was 24.4, the Safety index (HT-22 [2]) was 5 and the MTC (HT-22 [3]) was 100 µM. The MTC (HT-22 [4]) was 10 µM, the PC50 (HT-22 [5]) was 4.1 µM and the PC50 (HT-22 [6]) was 2 µM. The CC50 (HT-22 [7]) was 199 µM and the CC50 (HT-22 [8]) was 66 µM.

`O=C(c1ccccc1)c1ccc2c(c1O)NC(c1ccccc1)C(NCC(c1ccccc1)c1ccccc1)O2` (configuration not stated) showed a Safety index (HT-22 [1]) greater than 50, a Safety index (HT-22 [2]) greater than 25 and an MTC (HT-22 [3]) greater than 250 µM. For the same compound, the MTC (HT-22 [4]) was greater than 250 µM, the PC50 (HT-22 [5]) was 5 µM and the PC50 (HT-22 [6]) was 10 µM. For the same compound, the CC50 (HT-22 [7]) was greater than 250 µM and the CC50 (HT-22 [8]) was greater than 250 µM.

Work on `O=C(c1ccccc1)c1ccc2c(c1O)NC1(CCCCC1)C(N1CCCCC1)O2` (configuration not stated) yielded a Safety index (HT-22 [1]) greater than 13.5, a Safety index (HT-22 [2]) of 8.1 and an MTC (HT-22 [3]) greater than 250 µM. For the same compound, the MTC (HT-22 [4]) was 100 µM, the PC50 (HT-22 [5]) was 18.5 µM and the PC50 (HT-22 [6]) was 12.3 µM. It also gave a CC50 (HT-22 [7]) greater than 250 µM and a CC50 (HT-22 [8]) of 250 µM.

Work on `CC1(C)Nc2c(ccc(C(=O)c3ccccc3)c2O)OC1O` (configuration not stated) yielded a Safety index (HT-22 [1]) of 91, a Safety index (HT-22 [2]) of 10.3 and an MTC (HT-22 [3]) of 100 µM. The MTC (HT-22 [4]) was 10 µM, the PC50 (HT-22 [5]) was 1.1 µM and the PC50 (HT-22 [6]) was 0.97 µM. The CC50 (HT-22 [7]) was greater than 250 µM and the CC50 (HT-22 [8]) was 48 µM.

In the case of `CC1(C)Nc2c(ccc(C(=O)c3ccccc3)c2O)OC1N1CCOCC1` (configuration not stated), the Safety index (HT-22 [1]) is reported as 66.7, the Safety index (HT-22 [2]) is reported as 5.9 and the MTC (HT-22 [3]) is reported as 100 µM. It also gave an MTC (HT-22 [4]) of 10 µM, a PC50 (HT-22 [5]) of 1.5 µM and a PC50 (HT-22 [6]) of 1.7 µM. For the same compound, the CC50 (HT-22 [7]) was 190 µM and the CC50 (HT-22 [8]) was 75 µM.

In the case of `O=C(c1ccccc1)c1ccc2c(c1O)NC1(CCCCC1)C(NCC1CCCCC1)O2` (configuration not stated), the Safety index (HT-22 [1]) is reported as 667, the Safety index (HT-22 [2]) is reported as 20.8 and the MTC (HT-22 [3]) is reported as 100 µM. The MTC (HT-22 [4]) was 5 µM, the PC50 (HT-22 [5]) was 0.15 µM and the PC50 (HT-22 [6]) was 0.24 µM. For the same compound, the CC50 (HT-22 [7]) was greater than 250 µM and the CC50 (HT-22 [8]) was 16.5 µM.

`CC(C)CNC1Oc2ccc(C(=O)c3ccccc3)c(O)c2NC1(C)C` (configuration not stated) gave a Safety index (HT-22 [1]) of 185, a Safety index (HT-22 [2]) of 24.4 and an MTC (HT-22 [3]) of 100 µM. For the same compound, the MTC (HT-22 [4]) was 10 µM, the PC50 (HT-22 [5]) was 0.54 µM and the PC50 (HT-22 [6]) was 0.41 µM. For the same compound, the CC50 (HT-22 [7]) was 160 µM and the CC50 (HT-22 [8]) was 45 µM.

Compound `CN(CC1OCCO1)C1Oc2ccc(C(=O)c3ccccc3)c(O)c2NC12CCCCC2` (configuration not stated) has a Safety index (HT-22 [1]) of 11.4, a Safety index (HT-22 [2]) of 2 and an MTC (HT-22 [3]) of 25 µM. It also gave an MTC (HT-22 [4]) of 5 µM, a PC50 (HT-22 [5]) of 2.2 µM and a PC50 (HT-22 [6]) of 2.4 µM. The CC50 (HT-22 [7]) was greater than 250 µM and the CC50 (HT-22 [8]) was 25 µM.

In the case of `CC1(C)Nc2c(ccc(C(=O)c3ccccc3)c2O)OC1NC1CCCCC1` (configuration not stated), the Safety index (HT-22 [1]) is reported as 47.6, the Safety index (HT-22 [2]) is reported as 4.2 and the MTC (HT-22 [3]) is reported as 100 µM. For the same compound, the MTC (HT-22 [4]) was 10 µM, the PC50 (HT-22 [5]) was 2.1 µM and the PC50 (HT-22 [6]) was 2.4 µM. The CC50 (HT-22 [7]) was 120 µM and the CC50 (HT-22 [8]) was 29 µM.

For `O=C(c1ccccc1)c1ccc2c(c1O)NC1(CCCCC1)C(O)O2` (configuration not stated), the Safety index (HT-22 [1]) was 16.6, the Safety index (HT-22 [2]) was 6.2 and the MTC (HT-22 [3]) was 50 µM. The MTC (HT-22 [4]) was 25 µM, the PC50 (HT-22 [5]) was 3 µM and the PC50 (HT-22 [6]) was 4 µM. The CC50 (HT-22 [7]) was greater than 250 µM and the CC50 (HT-22 [8]) was 178 µM.

With `CC(C)(C)C1COc2c(NCCc3ccccc3)ccc(C(=O)c3ccccc3)c2N1` (configuration not stated) the Safety index (HT-22 [1]) was greater than 62.5, the Safety index (HT-22 [2]) was greater than 100 and the MTC (HT-22 [3]) was greater than 250 µM. The MTC (HT-22 [4]) was greater than 250 µM, the PC50 (HT-22 [5]) was 4 µM and the PC50 (HT-22 [6]) was 2.5 µM. The CC50 (HT-22 [7]) was greater than 250 µM, the CC50 (HT-22 [8]) was greater than 250 µM and the logP [9] was 5.28.
